This note sets out measurements from patent US9561231B2 (AbbVie Inc., priority 2012, dated 2017).

One assay relates to H460. In words: Proliferation panel assay: H460. Type of assay: cell-based. The note with it: Homo sapiens, NCI-H460, 120 h; H460 (NSCLC); 5 days, Cell Titer Glo; read-out: Cellular Proliferation EC50. Background: Cellular ATP, detected with luciferase, serves as a proxy for viable cell number.
Another assay concerns A-375. The assay can be described thus: Proliferation panel assay: A-375. Type of assay: cell-based. The note with it: Homo sapiens, 120 h; A-375 (Melanoma); 5 days, Cell Titer Glo; read-out: Cellular Proliferation EC50.
The next assay concerns Raji. In words: Proliferation panel assay: Raji. Type of assay: cell-based. The note with it: Homo sapiens, 120 h; Raji (Burkitt lymphoma); 5 days, Cell Titer Glo; read-out: Cellular Proliferation EC50.
In the next assay the test system is H1299. In words: Proliferation panel assay: H1299. Type of assay: cell-based. The settings on record: Homo sapiens, NCI-H1299, 120 h; H1299 (NSCLC); 5 days, Cell Titer Glo; read-out: Cellular Proliferation EC50.
In a further assay the test system is NCI-H929. The assay can be described thus: Proliferation panel assay: NCI-H929. The settings on record: Homo sapiens, 120 h; NCI-H929 (Multiple Myeloma); 5 days, Cell Titer Glo; read-out: Cellular Proliferation EC50. Type of assay: cell-based.
The subject of the next assay is D54MG. In words: Proliferation panel assay: D54MG. Type of assay: cell-based. The note with it: 120 h; D54MG (Glioblastoma); 5 days, Cell Titer Glo; read-out: Cellular Proliferation EC50.
In another assay the test system is BxPC3FP5. In words: Proliferation panel assay: BxPC3FP5. Type of assay: cell-based. The settings on record: 120 h; BxPC3FP5 (Pancreas); 5 days, Cell Titer Glo; read-out: Cellular Proliferation EC50.
The subject of the next assay is SK-LMS-1. The assay can be described thus: Proliferation panel assay: SK-LMS-1. Type of assay: cell-based. The settings on record: Homo sapiens, 120 h; SK-LMS-1 (Sarcoma); 5 days, Cell Titer Glo; read-out: Cellular Proliferation EC50.
The next assay concerns EJ-1. The assay can be described thus: Proliferation panel assay: EJ-1. Type of assay: cell-based. The note with it: EJ1, 120 h; EJ-1 (Bladder); 5 days, Cell Titer Glo; read-out: Cellular Proliferation EC50.
For assay [1], the system named is LPS induced IL-6 production. In words: LPS (lipopolysaccharide) induced IL-6 production mouse assay. The note with it: 30 mg/kg oral, 1 h before LPS 2.5 mg/kg i.p.; serum IL-6 2 h after LPS; p<0.05.

As to `Cc1cc(-c2cc(NS(C)(=O)=O)ccc2Oc2ccccc2)c[nH]c1=O` [Example 261, N-[3-(5-methyl-6-oxo-1,6-dihydropyridin-3-yl)-4-phenoxyphenyl]methanesulfonamide], the EC50 in the assay with H460 was determined as 310 nM; with A-375, 498 nM; in the assay with Raji, 134 nM; in the assay with H1299 it was 740 nM; in the assay on NCI-H929 it was 98 nM; with D54MG it was 338 nM. Further, the EC50 with BxPC3FP5 came to 230 nM; in the assay with SK-LMS-1 it was 348 nM; with EJ-1, 1160 nM. The “Inhibition of LPS induced IL-6 production, % inhibition” value in [1] is 42.2 @ 30 mg/kg %.
With `Cn1cc(-c2cc(NS(C)(=O)=O)ccc2Oc2ccccc2)ccc1=O` [Example 224, N-[3-(1-methyl-6-oxo-1,6-dihydropyridin-3-yl)-4-phenoxyphenyl]methanesulfonamide], the EC50 came to 110 nM with H460; 430 nM with A-375; 129 nM with Raji; 750 nM in the assay on H1299; 109 nM in the assay on NCI-H929; 423 nM in the assay on D54MG. In addition, the results for the EC50 with BxPC3FP5, with SK-LMS-1 and in the assay with EJ-1 were 230 nM, 448 nM and 1590 nM, respectively.
